In patent publication US9643951B2, “Compound having somatostatin receptor agonistic activity and pharmaceutical use thereof” (ONO PHARMACEUTICAL CO., LTD., priority 2013, dated 2017):

Tests used:
[1] = test system: growth hormone (GH) secretion; assay: Evaluation of suppression of growth hormone (GH) secretion using rats (GHRH-induced); type: in vivo
Procedure: Evaluation of Suppression of Growth Hormone (GH) Secretion Using Rats
[Procedure (A): Administration of a Test Compound 30 Minutes Beforehand]
A medium (distilled water (Otsuka distilled water, Otsuka Pharmaceutical Factory, […]) IGS rats (Charles River Laboratories Japan, Inc.)) and after 27 minutes, the animals were administered with 50 mg/kg of pentobarbital sodium (Somnopentyl, Kyoritsu Seiyaku Corporation) via the tail vein for anaesthesia. Three minutes after administration of pentobarbital sodium, the rats were administered with 0.01 mg/kg of growth hormone-releasing hormone (GHRH, Bachem) via the tail vein to induce GH secretion. In order to measure the blood GH concentration, 0.2 mL of blood was collected through the jugular vein at 5 minutes after administration of GHRH. The collected blood was centrifuged at 4° C., 13,000×g for 5 minutes to obtain plasma. The blood GH concentration was measured by using Rat/Mouse Growth Hormone ELISA (Millipore) following the instruction of the kit. The percentage (%) of suppression of GH secretion was determined by using the obtained blood GH concentration and the equation {[suppression (%) of GH secretion]=([blood GH concentration of the group administered with the medium]−[blood GH concentration of the group administered with a test compound])/[blood GH concentration of the group administered with the medium]×100}. In the equation, the group administered with the medium represents the group of animals administered with the medium and the group administered with a test compound represents the group of animals administered with a test compound dissolved in the medium.
[Procedure (B): Administration of a Test Compound 8 Hours Beforehand]
A medium (distilled water (Otsuka distilled water, Otsuka Pharmaceutical Factory, […]) IGS rats (Charles River Laboratories Japan, Inc.)) and after 7 hours and 57 minutes, the animals were administered with 50 mg/kg of pentobarbital sodium (Somnopentyl, Kyoritsu Seiyaku Corporation) via the tail vein for anaesthesia. Three minutes after administration of pentobarbital sodium, the rats were administered with 0.01 mg/kg of growth hormone-releasing hormone (GHRH, Bachem) via the tail vein to induce GH secretion. The rest of the procedure is the same as in [Procedure (A)] described above.

[2] = Human hepatic microsome stability test; type: in vitro ADME; settings: human hepatic microsomes 1 mg/mL; 60 minutes; test compound 0.001 mmol/L; 37° C.
Procedure: Human Hepatic Microsome Stability Test
To a reaction vessel heated to 37° C. in a water bath, 0.392 mL of phosphate buffer (0.1 mol/L, pH 7.4) containing human hepatic microsomes (1 mg/mL, Xenotech) and NADPH-Co-factor (NADP+1.3 mmol/L, BD-Bioscience) was added and pre-incubated for 5 minutes. A 50% acetonitrile solution (0.008 mL) containing 0.05 mmol/L of a test compound was added thereto to initiate the enzyme reaction (final concentration of the test compound: 0.001 mmol/L). Immediately after initiation of the reaction and at 60 minutes thereafter, 0.050 mL of the reaction solution was respectively collected, which was immediately added to an acetonitrile solution (0.2 mL) containing an internal standard (45 nmol/L, 1-[3-(3,5-dimethylphenyl)-4-quinolinyl]-4-piperidineamine) to terminate the enzyme reaction.
The residual rate (%), which is indicative of stability of the test compound, was calculated using the ratio of peak areas between the test compound and the internal substance determined by LC/MS/MS (TSQ Quantum Discovery MAX, Thermo) analysis of the sample thus prepared by the above procedures followed by filtration, and the equation: {[residual rate (%)=[peak area of a test compound in a sample at 60 minutes after initiation of the reaction/peak area of the internal standard]/[peak area of the test compound in the sample immediately after initiation of the reaction/peak area of the internal standard]×100}.

[3] = Evaluation of cytotoxicity using cultured human hepatocytes (intracellular ATP); type: cell-based; settings: read-out: IC50 of cytotoxicity (concentration at which 50% of the luminescence is suppressed)
Procedure: Evaluation of Cytotoxicity Using Cultured Human Hepatocytes
Frozen adhesive human hepatocytes were thawed, suspended in a hepatocellular medium (HCM) purchased from Lonza and inoculated to a 96-well plate coated with collagen. The culture medium of the hepatocytes cultured overnight in an incubator (5% carbon dioxide, 95% air, 37° C.) was exchanged to the medium containing a test compound at a concentration of 0, 12.5, 25, 50, 100, 200 or 400 (×10^−6 mol/L) and the cells were further cultured for 24 hours. Cytotoxicity was evaluated by measuring the intracellular ATP concentration. Specifically, using the Promega Celltiter-Glo luminescent assay kit available from Promega, cells were lysed in the assay buffer included in the kit and the concentration of ATP released from the cells was measured according to the luminescence resulting from luciferin-luciferase enzyme activity. The luminescence was measured on the SpectraMax plate reader from Molecular Devices. The extent of cytotoxicity of a test compound is represented by the concentration (IC50) of the compound at which 50% of the luminescence is suppressed.

[4] = target: T1, human SSTR2 (Homo sapiens, UniProt P30874); assay: Evaluation of SSTR2 agonistic activity using cells expressing human SSTR2 (suppression of forskolin-stimulated cAMP production, SSTR2-CHO-K1); type: cell-based
T1 construct: Myc; expressed in transfected cells
T1 sequence (P30874 whole entry): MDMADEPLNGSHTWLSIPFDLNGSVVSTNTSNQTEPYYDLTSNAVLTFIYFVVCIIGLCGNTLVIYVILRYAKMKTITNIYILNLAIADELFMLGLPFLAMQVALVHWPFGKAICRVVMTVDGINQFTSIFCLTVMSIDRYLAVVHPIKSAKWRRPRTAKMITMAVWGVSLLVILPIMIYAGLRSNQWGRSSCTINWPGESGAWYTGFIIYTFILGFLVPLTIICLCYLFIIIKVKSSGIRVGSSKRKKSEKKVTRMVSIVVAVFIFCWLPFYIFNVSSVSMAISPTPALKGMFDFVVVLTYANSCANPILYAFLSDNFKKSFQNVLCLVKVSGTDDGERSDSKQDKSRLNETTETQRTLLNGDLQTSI
Procedure: Evaluation of SSTR2 Agonistic Activity Using Cells Expressing Human SSTR2
(1) Isolation of Human SSTR2 Gene
Human brain cDNA was purchased from Ambion (catalogue No.: 7962; Lot No.: 040200121). PCR primers, hSSTR2_F1_XhoI: 5′-[…]-3′ (SEQ ID NO: 1) and hSSTR2_R1_EcoRI: 5′-[…]-3′ (SEQ ID NO: 2) were designed on the basis of the sequence GenBank NM_001050.
PCR reaction (95° C. for 2 min.→[98° C. for 10 sec., 60° C. for 30 sec. and 68° C. for 90 sec.]×30 cycles) was carried out using the human brain cDNA as a template and using KOD-plus-(TOYOBO Co., Ltd.). The amplified PCR product was subjected to 1% agarose gel electrophoresis, purified using QIAquick Gel Extraction Kit (QIAGEN) and digested with restriction enzymes XhoI and EcoRI. The digested fragments were ligated to an expression vector (pIRESneo-Myc) using the DNA Ligation Kit Ver. 2 (Takara) and used for transformation of E. coli DH5a. The plasmid pIRESneo-Myc/hSSTR2 was prepared and the DNA sequence thereof was confirmed.
(2) Culture of CHO-K1 Cells
CHO-K1 (−) was cultured in Ham's F-12 medium (containing foetal bovine serum (10%), penicillin (100 U/mL) and streptomycin (0.1 mg/mL)). The transduced cells were cultured in the same medium supplemented with Geneticin (1 mg/mL).
(3) Transduction of CHO-K1 Cells
CHO-K1(−) cells were transduced with the plasmid pIRESneo-Myc/hSSTR2 using Lipofectamine 2000 (Invitrogen). After 48 hours, selection was carried out by replacing the medium with the one containing 1 mg/mL of Geneticin to establish a stable overexpressing cell line (SSTR2-CHO-K1).
(4) Evaluation of SSTR2 Agonistic Activity
The human SSTR2 agonistic activity of a test compound was evaluated according to the following procedures by using a suppression activity of intracellular cyclic AMP (cAMP) production by forskolin stimulation as an index. SSTR2-CHO-K1 cells suspended in Ham's F-12 medium (containing foetal bovine serum (10%), penicillin (100 U/mL) and streptomycin (0.1 mg/mL)) supplemented with 0.25 mg/mL of Geneticin were inoculated into a 96-well plate at a density of 4.0×10^4 cells/0.1 mL per well. On the next day, the medium was removed and washed twice with 0.1 mL of wash buffer [0.1% bovine serum albumin (BSA), 20 mmol/L 4-(2-hydroxyethyl)-1-piperazineethane sulphonic acid (HEPES)-containing Hank's balanced salt solution (HBSS)]. An assay buffer [[…] 3-isobutyl-1-methylxanthine (IBMX), 0.1% BSA, 20 mmol/L HEPES-containing HBSS] was added to the wells at 0.06 mL per well and the plate was incubated for 15 minutes under the conditions of 5% carbon dioxide and 37° C. Thereafter, an assay buffer containing a test compound at a concentration twice as high as the final concentration and 0.02 mmol/L of forskolin was added to wells at 0.06 mL per well and the plate was incubated for 30 minutes under the conditions of 5% carbon dioxide and 37° C. Thereafter, the Assay/Lysis buffer included in the cAMP-Screen® kit (available from Applied Biosystems) was added to wells at 0.12 mL per well and the plate was incubated for 30 minutes under the conditions of 5% carbon dioxide and 37° C. The concentration of cAMP in samples were measured by ELISA according to the instruction of the kit.

[5] = target: somatostatin receptor subtype 3 (SSTR3) (Homo sapiens, UniProt P32745); settings: reported; cited from earlier work
Chain of somatostatin receptor subtype 3 (SSTR3) (P32745 whole entry, species assumed): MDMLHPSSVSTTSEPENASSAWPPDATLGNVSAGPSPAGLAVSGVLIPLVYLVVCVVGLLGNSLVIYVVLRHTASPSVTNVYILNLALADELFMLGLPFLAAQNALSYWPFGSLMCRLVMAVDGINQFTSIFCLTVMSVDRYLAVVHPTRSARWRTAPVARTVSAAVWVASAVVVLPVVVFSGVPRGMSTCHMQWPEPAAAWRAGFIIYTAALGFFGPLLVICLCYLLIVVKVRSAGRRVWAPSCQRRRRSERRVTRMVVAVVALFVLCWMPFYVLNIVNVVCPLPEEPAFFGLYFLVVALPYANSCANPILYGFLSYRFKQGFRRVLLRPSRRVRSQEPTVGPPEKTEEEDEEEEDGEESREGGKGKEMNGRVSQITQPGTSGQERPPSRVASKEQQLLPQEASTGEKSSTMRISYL

[6] = target: somatostatin receptor subtype 4 (SSTR4) (Homo sapiens, UniProt P31391); settings: reported; cited from earlier work
Chain of somatostatin receptor subtype 4 (SSTR4) (P31391 whole entry, species assumed): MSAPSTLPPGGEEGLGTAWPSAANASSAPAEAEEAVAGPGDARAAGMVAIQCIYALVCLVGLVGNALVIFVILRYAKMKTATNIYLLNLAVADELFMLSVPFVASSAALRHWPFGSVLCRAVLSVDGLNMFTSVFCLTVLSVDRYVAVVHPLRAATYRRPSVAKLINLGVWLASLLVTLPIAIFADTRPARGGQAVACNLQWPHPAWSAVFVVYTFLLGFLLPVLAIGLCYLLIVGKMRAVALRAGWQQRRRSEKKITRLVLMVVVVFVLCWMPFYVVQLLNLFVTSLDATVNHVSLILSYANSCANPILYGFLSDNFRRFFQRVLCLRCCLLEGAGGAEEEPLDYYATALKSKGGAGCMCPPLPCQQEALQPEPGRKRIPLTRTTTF

[7] = target: somatostatin receptor subtype 1 (SSTR1) (Homo sapiens, UniProt P30872); settings: reported; cited from earlier work
Chain of somatostatin receptor subtype 1 (SSTR1) (P30872 whole entry, species assumed): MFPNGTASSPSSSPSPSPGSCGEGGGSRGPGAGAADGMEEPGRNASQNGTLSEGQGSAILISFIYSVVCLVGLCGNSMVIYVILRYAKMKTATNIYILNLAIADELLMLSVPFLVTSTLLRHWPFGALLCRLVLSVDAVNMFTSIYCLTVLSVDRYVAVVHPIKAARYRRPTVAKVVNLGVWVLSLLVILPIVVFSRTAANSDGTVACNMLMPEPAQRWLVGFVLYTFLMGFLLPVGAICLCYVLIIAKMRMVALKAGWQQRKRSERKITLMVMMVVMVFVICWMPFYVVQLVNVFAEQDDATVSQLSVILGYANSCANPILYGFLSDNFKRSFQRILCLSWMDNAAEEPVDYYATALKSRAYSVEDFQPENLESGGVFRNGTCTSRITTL

[8] = target: somatostatin receptor subtype 2 (SSTR2) (Homo sapiens, UniProt P30874); settings: reported; cited from earlier work
Chain of somatostatin receptor subtype 2 (SSTR2) (P30874 whole entry, species assumed): as the sequence (P30874 whole entry) above

[9] = test system: gastric acid secretion; assay: Evaluation of suppression of gastric acid secretion using rats (pyloric ligation); type: in vivo; settings: continuous intravenous administration at 1 mcg (microgram)/kg/h

| SMILES | residual rate [2] [%] | IC50 at 24 h [3] [µM] | EC50 [4] [nM] | also measured |
| --- | --- | --- | --- | --- |
| CCNC1CCN(c2c(/C=C(\C)c3cccc(C#N)c3)cncc2-c2cc(Cl)cc(Cl)c2)CC1 [Example 5, 3-[(1E)-1-{5-(3,5-dichlorophenyl)-4-[4-(ethylamino)-1-piperidinyl]-3-pyridinyl}-1-propen-2-yl]benzonitrile] | 79.7 | 18 | 0.047 | inhibition in vivo at 1 mg/kg ([1]; Rattus norvegicus, Procedure (B): oral administration 8 hours beforehand, 1 mg/kg, read-out: percentage of suppression of GH secretion): 90% |
| COc1ccc(F)cc1C(=O)Nc1cncc(-c2cc(Cl)cc(Cl)c2)c1N1CCC(N)CC1 [Example 7(1), N-[4-(4-amino-1-piperidinyl)-5-(3,5-dichlorophenyl)-3-pyridinyl]-5-fluoro-2-methoxybenzamide] | 92.9 | 34 | 0.26 | inhibition in vivo at 3 mg/kg ([1]; Rattus norvegicus, Procedure (B): oral administration 8 hours beforehand, 3 mg/kg, read-out: percentage of suppression of GH secretion): 88% |
| NC1CCN(c2c(NC(=O)c3cccc(Cl)c3)cncc2-c2cc(F)cc(Cl)c2)CC1 [Example 7, N-[4-(4-amino-1-piperidinyl)-5-(3-chloro-5-fluorophenyl)-3-pyridinyl]-3-chlorobenzamide] | 100.0 | 74 | 0.34 | inhibition in vivo at 10 mg/kg ([1]; Rattus norvegicus, Procedure (B): oral administration 8 hours beforehand, 10 mg/kg, read-out: percentage of suppression of GH secretion): 93% |
| CC(C)[C@@H]1NC(=O)[C@H](CCCCN)NC(=O)[C@@H](Cc2c[nH]c3ccccc23)NC(=O)[C@H](Cc2ccc(O)cc2)NC(=O)[C@@H](NC(=O)[C@H](N)Cc2ccc3ccccc3c2)CSSC[C@@H](C(=O)N[C@H](C(N)=O)[C@@H](C)O)NC1=O [lanreotide acetate] |  |  |  | binding affinity to SSTR3 [5]: moderate affinity; binding to SSTR4 [6]: do not bind; binding to SSTR1 [7]: do not bind; binding affinity to SSTR2 [8]: high affinity |
| C[C@@H](O)[C@@H]1NC(=O)[C@H](CCCCN)NC(=O)[C@@H](Cc2c[nH]c3ccccc23)NC(=O)[C@H](Cc2ccccc2)NC(=O)[C@@H](NC(=O)[C@H](N)Cc2ccccc2)CSSC[C@@H](C(=O)N[C@H](CO)[C@@H](C)O)NC1=O [octreotide, reference compound] |  |  |  | suppression of GH secretion ([1]; Procedure (A): 30 minutes beforehand, 0.003 mg/kg by subcutaneous administration): 98%; percentage of suppression of gastric acid secretion [9]: 39% |
